Reference: US20190119284A1, “ErbB Inhibitors and Uses Thereof” (The Regents of the University of California, priority 2016, published 2019)

What was measured:
SYK = SYK (Homo sapiens, UniProt P43405); test: Nanosyn in vitro kinase profiling: SYK; format: biochemical; conditions: for inhibition at 1 µM: compound at 1 μM
Protocol: (§1) This was confirmed by in vitro profiling against a panel of kinases, with compound 2 only showing potent inhibition of EGFR and Ab1 (Table 2).
(§2) In vitro Kinome Screen. In vitro profiling of compound 2 at 100 nM was conducted by Nanosyn.

MET = MET (Homo sapiens, UniProt P08581); test: Nanosyn in vitro kinase profiling: MET; format: biochemical; conditions: for inhibition at 1 µM: compound at 1 μM
Sequence of MET (P08581 25-1390): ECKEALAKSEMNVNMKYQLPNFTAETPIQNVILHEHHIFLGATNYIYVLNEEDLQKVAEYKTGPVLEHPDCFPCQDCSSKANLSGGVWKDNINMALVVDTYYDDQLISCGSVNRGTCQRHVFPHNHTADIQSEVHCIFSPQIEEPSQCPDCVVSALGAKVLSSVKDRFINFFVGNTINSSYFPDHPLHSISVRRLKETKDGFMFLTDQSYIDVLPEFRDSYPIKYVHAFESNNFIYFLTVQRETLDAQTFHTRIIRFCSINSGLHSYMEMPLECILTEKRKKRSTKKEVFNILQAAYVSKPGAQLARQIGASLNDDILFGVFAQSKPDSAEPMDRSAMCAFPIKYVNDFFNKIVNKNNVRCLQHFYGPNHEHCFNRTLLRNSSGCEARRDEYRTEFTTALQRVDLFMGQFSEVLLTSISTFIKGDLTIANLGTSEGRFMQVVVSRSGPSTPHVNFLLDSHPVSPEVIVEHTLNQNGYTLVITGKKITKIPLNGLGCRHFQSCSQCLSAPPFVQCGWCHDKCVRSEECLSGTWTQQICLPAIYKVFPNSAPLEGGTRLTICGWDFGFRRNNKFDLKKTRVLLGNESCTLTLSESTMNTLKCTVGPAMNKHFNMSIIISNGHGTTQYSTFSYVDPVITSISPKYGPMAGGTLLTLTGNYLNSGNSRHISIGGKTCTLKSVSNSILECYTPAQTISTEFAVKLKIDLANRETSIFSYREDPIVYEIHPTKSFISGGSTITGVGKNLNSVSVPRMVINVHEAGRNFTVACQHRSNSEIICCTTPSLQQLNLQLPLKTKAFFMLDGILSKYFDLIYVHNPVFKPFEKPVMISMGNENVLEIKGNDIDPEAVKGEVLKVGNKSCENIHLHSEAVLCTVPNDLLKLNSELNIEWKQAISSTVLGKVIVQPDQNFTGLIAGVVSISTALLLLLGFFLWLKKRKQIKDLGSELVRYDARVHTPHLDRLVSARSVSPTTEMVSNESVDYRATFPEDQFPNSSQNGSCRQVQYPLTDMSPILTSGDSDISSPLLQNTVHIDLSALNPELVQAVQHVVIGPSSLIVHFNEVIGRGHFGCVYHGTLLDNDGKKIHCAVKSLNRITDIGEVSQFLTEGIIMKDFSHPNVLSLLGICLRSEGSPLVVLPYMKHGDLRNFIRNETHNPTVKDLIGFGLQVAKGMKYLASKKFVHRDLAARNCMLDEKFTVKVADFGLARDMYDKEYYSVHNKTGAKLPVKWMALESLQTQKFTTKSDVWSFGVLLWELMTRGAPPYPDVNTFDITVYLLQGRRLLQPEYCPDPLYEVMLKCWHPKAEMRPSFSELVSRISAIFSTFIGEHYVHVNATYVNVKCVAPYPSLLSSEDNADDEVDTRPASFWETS
Protocol: as §1, §2

PAK2 = PAK2 (Homo sapiens, UniProt Q13177); test: Nanosyn in vitro kinase profiling: PAK2; format: biochemical; conditions: for inhibition at 1 µM: compound at 1 μM
Sequence of PAK2 (Q13177 whole entry, species assumed): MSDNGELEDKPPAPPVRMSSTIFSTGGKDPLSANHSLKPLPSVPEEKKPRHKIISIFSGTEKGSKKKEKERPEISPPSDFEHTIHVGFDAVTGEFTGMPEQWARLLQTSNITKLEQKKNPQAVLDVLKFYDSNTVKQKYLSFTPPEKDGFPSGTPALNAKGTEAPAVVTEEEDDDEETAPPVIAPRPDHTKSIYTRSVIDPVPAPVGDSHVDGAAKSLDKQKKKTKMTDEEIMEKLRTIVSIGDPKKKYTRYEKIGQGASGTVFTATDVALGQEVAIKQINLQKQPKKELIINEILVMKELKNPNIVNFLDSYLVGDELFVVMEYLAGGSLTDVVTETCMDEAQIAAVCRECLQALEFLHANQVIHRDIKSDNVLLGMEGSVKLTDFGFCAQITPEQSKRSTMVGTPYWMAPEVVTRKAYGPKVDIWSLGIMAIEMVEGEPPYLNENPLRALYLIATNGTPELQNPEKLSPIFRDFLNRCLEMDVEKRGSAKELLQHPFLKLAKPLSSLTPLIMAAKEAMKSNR
Protocol: as §1, §2

IRAK4 = molecular target: T1, IRAK4 (Homo sapiens, UniProt Q9NWZ3); test: Nanosyn in vitro kinase profiling: IRAK4; format: biochemical; conditions: for inhibition at 1 µM: compound at 1 μM
T1 sequence (Q9NWZ3 1-460): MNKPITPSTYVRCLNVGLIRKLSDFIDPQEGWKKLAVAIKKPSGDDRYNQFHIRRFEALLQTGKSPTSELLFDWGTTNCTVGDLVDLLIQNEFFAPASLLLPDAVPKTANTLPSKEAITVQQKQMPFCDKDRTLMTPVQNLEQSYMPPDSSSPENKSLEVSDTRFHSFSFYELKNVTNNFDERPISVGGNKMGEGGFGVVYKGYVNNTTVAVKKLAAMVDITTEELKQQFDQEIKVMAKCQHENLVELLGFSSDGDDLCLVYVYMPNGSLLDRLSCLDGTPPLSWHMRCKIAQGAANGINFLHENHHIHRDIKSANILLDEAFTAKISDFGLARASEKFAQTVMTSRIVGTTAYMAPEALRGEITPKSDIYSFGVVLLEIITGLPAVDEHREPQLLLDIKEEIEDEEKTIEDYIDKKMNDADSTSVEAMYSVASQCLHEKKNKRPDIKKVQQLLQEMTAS
Protocol: as §1, §2

EPH-A2 = EPH-A2 (Homo sapiens, UniProt P29317); test: Nanosyn in vitro kinase profiling: EPH-A2; format: biochemical; conditions: for inhibition at 1 µM: compound at 1 μM
Sequence of EPH-A2 (P29317 24-976, species assumed): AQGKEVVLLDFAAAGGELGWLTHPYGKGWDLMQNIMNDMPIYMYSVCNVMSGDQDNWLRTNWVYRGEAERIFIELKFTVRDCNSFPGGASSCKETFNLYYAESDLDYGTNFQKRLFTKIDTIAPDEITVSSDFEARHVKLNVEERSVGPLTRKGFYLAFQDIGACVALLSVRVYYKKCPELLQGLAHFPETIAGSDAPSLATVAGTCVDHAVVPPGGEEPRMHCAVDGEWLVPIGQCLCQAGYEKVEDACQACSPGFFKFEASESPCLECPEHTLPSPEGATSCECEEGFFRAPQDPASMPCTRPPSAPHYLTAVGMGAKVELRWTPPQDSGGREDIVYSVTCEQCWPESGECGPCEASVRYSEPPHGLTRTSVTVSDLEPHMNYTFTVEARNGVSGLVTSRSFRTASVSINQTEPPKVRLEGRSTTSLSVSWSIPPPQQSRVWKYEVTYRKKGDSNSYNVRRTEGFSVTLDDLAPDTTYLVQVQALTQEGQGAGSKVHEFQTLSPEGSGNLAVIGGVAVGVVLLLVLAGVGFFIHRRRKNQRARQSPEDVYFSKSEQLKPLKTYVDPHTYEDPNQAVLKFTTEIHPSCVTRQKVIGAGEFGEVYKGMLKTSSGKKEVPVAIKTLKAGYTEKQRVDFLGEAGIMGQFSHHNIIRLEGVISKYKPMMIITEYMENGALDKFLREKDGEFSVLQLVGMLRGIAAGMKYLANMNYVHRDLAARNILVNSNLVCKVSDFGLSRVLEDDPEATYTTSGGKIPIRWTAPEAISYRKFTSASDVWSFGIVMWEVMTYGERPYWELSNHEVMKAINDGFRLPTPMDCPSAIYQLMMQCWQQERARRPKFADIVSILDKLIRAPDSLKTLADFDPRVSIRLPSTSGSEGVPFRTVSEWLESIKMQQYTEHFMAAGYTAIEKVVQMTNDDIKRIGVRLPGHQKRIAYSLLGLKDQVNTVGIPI
Protocol: as §1, §2

[1] = system: HER2YF/HER3E928G (2YF/3EG) Ba/F3 cells; test: Ba/F3 proliferation assay, 2YF/3EG +/- NRG; format: cell-based; conditions: + NRG vs no NRG
Description: Consistent with the results in the HER2 overexpressing cell lines, CW-2 cells that harbor a HER3-activating mutation were equally sensitive to compound 3+/−NRG in both proliferation and signaling assays (FIGS. 6A-6B). […] To further evaluate the potential of compound 3 against HER2 mutants within a HER2/HER3 heterodimer we transduced wt HER3 containing Ba/F3 cells with reported HER2 oncogenic mutants in the HER2YF construct.
For HER2YF/3EG Ba/F3 cells were selected according to the protocol for the HER2YF/3TM Ba/F3's with the exception that no NRG was supplemented in the media during IL-3 independent selection.
Proliferation Assays. For adherent cell lines, cells were plated onto opaque white 96 well plates (Greiner cat #655083) and allowed to adhere overnight. The following day media was changed to fresh media that contained either DMSO or the indicated concentration of drug plus NRG (50 ng/mL final concentration) as indicated. Plates were incubated at 37° C. for 72 h and proliferation was read out using Cell Titer Glo (Promega) according to the manufacturer's protocol. For Ba/F3 cell proliferation, cells, drug dilution, and any necessary growth factors (10 ng/mL IL-3 or 6.25 ng/mL NRG) were combined in a well of a 96 well plate. Plates were incubated at 37° C. for 48 h and proliferation was read out using Cell Titer Glo according to the manufacturer's protocol. For all normalized assays, proliferation was normalized to the DMSO control condition. All graphs were plotted in GraphPad Prism 6 and fit with a non-linear regression of the log(inhibitor) vs response with a variable slope where shown. All graphs are averages (+/−standard deviation) of biological triplicates each performed in technical triplicate unless otherwise noted. If only one biological replicate was performed standard deviations were derived from the technical replicates.

Axl+ Ba/F3 cells = molecular target: T2, Axl+ Ba/F3 cells (Homo sapiens, UniProt P30530); test: Ba/F3 proliferation assay, Axl+; format: cell-based; conditions: Table 4; ± S.D., n = 3; 48 h Cell Titer Glo; read-out: IC50, Axl
T2 sequence (P30530 1-894): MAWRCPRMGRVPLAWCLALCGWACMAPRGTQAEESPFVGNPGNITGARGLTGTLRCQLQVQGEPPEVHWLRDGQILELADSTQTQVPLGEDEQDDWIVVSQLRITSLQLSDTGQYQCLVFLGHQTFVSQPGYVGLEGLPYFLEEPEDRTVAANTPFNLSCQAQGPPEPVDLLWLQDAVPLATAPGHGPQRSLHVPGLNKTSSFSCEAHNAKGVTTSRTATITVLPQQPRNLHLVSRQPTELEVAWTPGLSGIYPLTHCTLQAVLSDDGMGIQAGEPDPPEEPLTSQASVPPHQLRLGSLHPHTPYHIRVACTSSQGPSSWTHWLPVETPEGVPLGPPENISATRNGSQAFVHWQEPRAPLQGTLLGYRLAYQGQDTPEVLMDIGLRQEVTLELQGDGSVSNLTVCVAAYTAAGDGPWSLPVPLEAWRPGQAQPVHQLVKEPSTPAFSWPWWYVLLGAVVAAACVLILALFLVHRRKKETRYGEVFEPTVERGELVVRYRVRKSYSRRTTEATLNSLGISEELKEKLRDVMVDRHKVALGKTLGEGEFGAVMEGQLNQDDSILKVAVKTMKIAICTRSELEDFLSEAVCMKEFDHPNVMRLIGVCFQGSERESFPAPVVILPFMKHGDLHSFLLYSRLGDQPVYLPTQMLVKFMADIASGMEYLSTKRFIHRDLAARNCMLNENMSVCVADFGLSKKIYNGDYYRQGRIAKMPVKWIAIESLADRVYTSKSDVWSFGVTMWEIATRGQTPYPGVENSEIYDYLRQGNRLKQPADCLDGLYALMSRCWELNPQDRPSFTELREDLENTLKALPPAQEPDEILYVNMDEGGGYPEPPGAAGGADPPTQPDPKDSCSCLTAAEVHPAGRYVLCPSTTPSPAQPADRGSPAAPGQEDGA
Outline: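 Ba/F3 cells transduced with Axl and selected for IL-3-independent growth. Cells combined with drug dilutions, and with IL-3 (10 ng/mL) or NRG (6.25 ng/mL) where needed, for 48 h at 37 °C. CellTiter-Glo read, normalized to DMSO, fitted with variable-slope log(inhibitor) regression.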

| inhibition at 0.1 µM (SYK; compound at 100 nM) [%] | inhibition at 1 µM (SYK) [%] | inhibition at 0.1 µM (MET; compound at 100 nM) [%] | inhibition at 1 µM (MET) [%] | inhibition at 0.1 µM (PAK2; compound at 100 nM) [%] | inhibition at 1 µM (PAK2) [%] | inhibition at 0.1 µM (IRAK4; compound at 100 nM) [%] | inhibition at 1 µM (IRAK4) [%] | inhibition at 0.1 µM (EPH-A2; compound at 100 nM) [%] | inhibition at 1 µM (EPH-A2) [%] | SMILES | reduction of sensitivity on addition of NRG [1] | GI50 (Axl+ Ba/F3 cells) [nM] |
| --- | --- | --- | --- | --- | --- | --- | --- | --- | --- | --- | --- | --- |
| -2.12 | -6.41 | 2.04 | 10.1 | 0.085 | 1.07 | 1.47 | 1.42 | 2.42 | 21 | COc1ccc(-c2ccco2)cc1Nc1ncnc2[nH]nc(-c3ccco3)c12 [compound 2, 3-(furan-2-yl)-N-(5-(furan-2-yl)-2-methoxyphenyl)-1H-pyrazolo[3,4-d]pyrimidin-4-amine] | – | – |
| – | 35 | – | 16 | – | 3 | – | 34 | – | 28 | COc1ccc(-c2ccoc2)cc1Nc1ncnc2[nH]cc(-c3cc[nH]n3)c12 [compound 3, N-(5-(furan-3-yl)-2-methoxyphenyl)-5-(1H-pyrazol-3-yl)-7H-pyrrolo[2,3-d]pyrimidin-4-amine] | less than 5 fold | 1170 ± 106 |
| – | – | – | – | – | – | – | – | – | – | CS(=O)(=O)CCNCc1ccc(-c2ccc3ncnc(Nc4ccc(OCc5cccc(F)c5)c(Cl)c4)c3c2)o1 [lapatinib] | 55 fold | > 3330 |
